Values quoted from earlier work as cited in publication PMC6256996, “Natural products as new antimitotic compounds for anticancer drug development” (Clinics, 2018).
Like-named read-outs stand apart in the source and are kept apart here.

How the values were obtained:
[1] = system: HL-60 cells; design: method as in PMID 16316665; details: 3 hours
[2] = system: HL-60 cells; design: method as in PMID 16316665
[3] = system: HL-60 cells; design: method as in PMID 16316665; details: lowest treatment concentration (3.97 μmol.L^-1)
[4] = system: K562 cells; design: method as in PMID 15787450, doi:10.1007/s11418-006-0118-3; details: 48-hour incubation
[5] = system: HCT-8; design: method as in doi:10.2174/1570180814666171012162557; details: for SI PBMC/HCT-8: cytotoxic selectivity index, IC50 for PBMCs/cancer cell line
[6] = system: HL60; design: method as in doi:10.2174/1570180814666171012162557; details: for SI PBMC/HL-60: cytotoxic selectivity index, IC50 for PBMCs/cancer cell line
[7] = system: peripheral blood mononuclear cells (PBMCs); design: method as in doi:10.2174/1570180814666171012162557; details: 72h of treatment; mean±SEM
[8] = system: OVCAR-8; design: method as in doi:10.2174/1570180814666171012162557; details: for SI PBMC/OVCAR-8: cytotoxic selectivity index, IC50 for PBMCs/cancer cell line

IC50 ([5]; 72h of treatment, mean±SEM, read-out: HCT-8 (mean IC50±SEM)) [µM] | IC50 ([6]; 72h of treatment, mean±SEM, read-out: HL60 (mean IC50±SEM)) [µM] | IC50 ([8]; 72h of treatment, mean±SEM, read-out: OVCAR-8 (mean IC50±SEM)) [µM] | IC50 ([5]; read-out: IC50 in HCT-8 tumor cell line) [µM] | IC50 ([6]; read-out: IC50 in HL-60 tumor cell line) [µM] | IC50 ([8]; read-out: IC50 in OVCAR-8 tumor cell line) [µM] | Structure (SMILES) | Inhibition of BrdU incorporation during the S phase ([1]; 3.97 μmol.L^-1) [%] | Inhibition of BrdU incorporation during the S phase ([1]; 7.95 μmol.L^-1) [%] | Inhibition of BrdU incorporation during the S phase ([1]; 15.9 μmol.L^-1) [%] | Cells with DNA fragmentation ([2]; HL-60 cells permeabilized with Triton X-100, 24-hour treatment, 3.97, 7.95 and 15.9 μmol.L^-1) [%] | Cell cycle arrest (DNA content) ([2]; HL-60 cells, 15.9 μmol.L^-1) | Membrane damage ([2]; HL-60 cells, 24-hour treatment, 3.97, 7.95 and 15.9 μmol.L^-1) | HL-60 cell population with depolarized mitochondria [3] [%] | IC50, proliferation of K562 cells [4] [µg/mL] | SI PBMC/HCT-8 ([5]; 72h of treatment) | SI PBMC/HL-60 ([6]; 72h of treatment) | IC50 [7] [µM] | SI PBMC/OVCAR-8 ([8]; 72h of treatment)
 |  |  |  |  |  | COc1ccc2c(c1)O[C@@H]1c3cc(OC)c(OC)cc3OC[C@H]21 [(+)2,3,9-trimethoxypterocarpan, (+)2,3,9-Trimethoxypterocarpan] | 37 | 38 | 56 | ~50 | arrested at the G2/M phase transition | no significant membrane damage | 38.6 | 0.8 |  |  |  | 
 |  |  |  |  |  | COc1ccc(/C=C\c2cc(OC)c(OC)c(OC)c2)cc1O [CA-4, combretastatin A-4, reference compound] |  |  |  |  |  |  |  |  | 0.60 | 1.45 | 0.0032 | 6.40
0.45 ± 0.081 | 0.29 ± 0.0012 | 0.29 ± 0.04 |  |  |  | COc1cc(C(=O)N/N=C/c2ccccc2)cc(OC)c1OC [LASSBio-1586] |  |  |  |  |  |  |  |  | 3.0 | 4.60 | 1.34 ± 0.065 | 4.60
 |  |  | 0.005 | 0.0003 | 0.009 | COc1cc(C(=O)N/N=C/c2cc3ccccc3s2)cc(OC)c1OC [LASSBio-1920] |  |  |  |  |  |  |  |  | 20.0 | 333.30 | 0.1 ± 0.011 | 11.11
